Measured values: patent US4603044A, “Hepatocyte Directed Vesicle delivery system” (Technology Unlimited, Inc., priority 1984, dated 1986)

Columns and labels:
[1] = system: selectively denervated dog; experiment: Conversion of hepatic glucose output to uptake in selectively denervated dog, intravenous infusion (biliverdin target); assay type: in vivo
Method: This dog, when infused with glucose, has portal vein glucose values (mg % measured with a Beckman Glucose Analyzer) that are less than hepatic vein glucose, indicating a hep hepatic glucose output. This is clearly seen in the data presented in the of FIG. 6. The dog is in a state of glucose output for time 15, 30 and 40 minutes. […]

[2] = system: denervated dogs (diabetic-like state); experiment: Blood glucose response to a standardized meal in selectively denervated (diabetic-like) dogs; assay type: in vivo, dog; details: serotonin 150 ug, intravenously or subcutaneously
Description: In a first study testing the HDV system, a chronic dog model was selected which mimics the early stages of adult onset diabetes mellitus, now referred to as diabetes mellitus Type II. In this model, the diabetes was induced by selective denervation.
This study was divided into three phases, studying the blood glucose response of the animals while in the (1) normal state; (2) diabetic-like state; and (3) successful treatment of the diabetic-like state with subcutaneously administered HDV containing serotonin.
The experimental plan required four normal, healthy mongrel dogs. […] The graph of FIG. 1 is a comparison chart for in vivo testing.
The data for this normal phase are shown in the graph as the line indicated by reference number 10. The data are expressed as a percentage of the fasting blood glucose value taken prior to feeding. Since four dogs were used, the average or mean value for the data is plotted. The data are statistically analyzed, and the variation in the data is shown by the small vertical bars above and below the data points. These bars are the standard error of the mean (SEM).
Following the acquisition of the data described above, the dogs were surgically denervated to induce the diabetic-like state and allowed a week to recover. At this time the study is again repeated, and the data are shown as the line indicated by reference number 12, along with the error bars (SEM). […]

[3] = system: selectively denervated dog; experiment: Conversion of hepatic glucose output to uptake in selectively denervated dog, intraduodenal injection; assay type: in vivo; details: infusion for thirty minutes
Method: In this model, the response of the HDV Serotonin was the conversion of hepatic glucose output to uptake. This conversion was determined by measuring the glucose levels (Beckman Glucose Analyzer) in simultaneously obtained blood samples from the portal and hepatic veins. Sampling was by means of sampling catheters acutely placed under general anesthesia.
The state of hepatic glucose output occur when the level of glucose (mg %) in the hepatic vein exceeds that of the portal vein. Hepatic glucose uptake is the reverse situation.
Data for the experiment are found in the graph of FIG. 5. At "0" minutes, during the control period, the animal is in a state of hepatic glucose output. Because of the selective denervation, the animal stays in output (at 20 and 55 minutes), even though glucose is being infused at a rate of 0.5 g/kg body weight/hour via a mesenteric vein.
The HDV Serotonin is injected into the duodenum (0.8 ml containing 3 ug serotonin/kg) at 60 minutes.

[4] = system: insulin-deficient (diabetic) dog; experiment: Conversion of hepatic glucose output to uptake in insulin-deficient (diabetic) dog, intravenous infusion; assay type: in vivo; details: insulin alone
Description: The response of HDV Insulin to be measured was the conversion of hepatic glucose output to uptake by measuring the glucose (Beckman Glucose Analyzer) levels of simultaneously obtained portal and hepatic vein blood. Diabetes had been induced by the method of Black, (Am. J. Pathol. Vol 98, No. 2, pg 295-305, 1980) and sampling was done via portal and hepatic vein catheters acutely placed under general anesthesia. The dog had been fasted from food for twenty-four hours and taken off of exogenously-administered insulin for forty-eight hours.
The state of hepatic glucose output occurs when the hepatic vein glucose level (in mg%) exceeds the portal vein glucose level. Hepatic glucose uptake is the reverse.
The data for the experiment are found in the graph of FIG. 4. At "0" minutes the dog is in glucose output, and this output is maintained through the "23" and "35" minute samples, even though glucose is infused via a mesenteric vein at a rate of 0.5 g/kg body weight/hour. An intact (non-diabetic) animal would have immediately converted to glucose uptake. This dog's diabetic state is confirmed by its' not converting to glucose uptake at these times.
Following the "35" minutes sampling, HDV Insulin was infused via the left external jugular vein at a rate of 0.03 mU/kg/minute. […] The minimum infusion rate for insulin alone is 6.25 mU/kg/minute. […]

hypophysectomized rats = experiment: Growth stimulation in hypophysectomized rats, daily subcutaneous injection; assay type: in vivo, rat
Method: The HDVGH was administered to rats daily by subcutaneous injection. The control rats required 10 ugGH per day (also given subcutaneously) to maintain normal growth of 1 g weight gain per day. The HDVGH treated rats attained normal growth rates with dosages of HDVGH of 0.15 to 1.5 ug per day. Thus, the HDVGH required only 1/7th to 1/50th of the regular dose of growth hormone. The HDVGH was superpotent and was efficacious when given by subcutaneous injection.

NCCc1c[nH]c2ccc(O)cc12 [serotonin, 5-hydroxytryptamine]
rate of free serotonin infusion required [1]: 30 µg/kg/min
effect of free serotonin on post-meal blood glucose elevation [2]: not effective
intraportal infusion of free serotonin required for the same pharmacologic effect [3]: 10-30 ug/kg body weight/minute

insulin: free hormone insulin, comparator to HDV Insulin
minimum infusion rate for conversion to hepatic glucose uptake [4]: 6.25 mU/kg/minute

B1: GH: free growth hormone given subcutaneously to control rats (protein, UniProt P01244 27-216, looked up)
Somatotropin: FPAMPLSSLFANAVLRAQHLHQLAADTYKEFERAYIPEGQRYSIQNAQAAFCFSETIPAPTGKEEAQQRTDMELLRFSLLLIQSWLGPVQFLSRIFTNSLMFGTSDRVYEKLKDLEEGIQALMQELEDGSPRIGQILKQTYDKFDANMRSDDALLKNYGLLSCFKKDLHKAETYLRVMKCRRFAESSCAF
daily dose to attain/maintain normal growth (1 g weight gain per day) (hypophysectomized rats): 10 ug per day
